Tested on: LRRK2^G2019S, PINK1 null and SNCA^A53T flies
Test: Adult fly climbing ability (negative geotaxis)
Format: in vivo
Settings: 2.5 μM in food, two models (LRRK2 and PINK1)
Method: FIG. 4A-FIG. 4I. Miro1 Reducer Rescues PD-Relevant Phenotypes in Flies. For all panels, when Miro1 Reducer was not added, the same volume of the solvent, DMSO, was supplied in fly food. Drug administration (2.5 μM) was started from day 2. (FIG. 4A-FIG. 4C) Survival curves of LRRK2^G2019S (FIG. 4A), PINK1^B9 (imprecise excision, null) and PINK1^RV (the precise excision control for PINK1^B9) (FIG. 4B), and SNCA^A53T flies (FIG. 4C). n=58-150. (FIG. 4D) Dopaminergic (DA) neurons in the PPM1/2 clusters of 22-day old flies were immunostained with anti-TH. (FIG. 4D-FIG. 4F) Quantification of the DA neuron number in the PPL1 or PPM1/2 cluster (total number divided by 2 for each brain). (FIG. 4D) LRRK2^G2019S. n=6-8 brains. […]
Fly climbing (negative geotaxis) ability was evaluated as previously described. Briefly, adult flies were gently tapped to the base of a modified 25 ml climbing tube and their climbing progress was recorded after 45 sec. Three populations of flies were assessed, and for each population, flies were examined 3 times per experiment. The recorded values were used to calculate Average Performance Index (PI). […] If the fly flew away, it was recorded as “1”, and if it was unable to fly, it was recorded as “0”. Wing posture was assessed by viewing each fly through a vial under a dissecting microscope. […] A normal wing posture or thorax (Course et al., 2018) was scored as “1”, otherwise “0”. […]

O=C(Nc1ccc(Nc2cc(-n3ccnc3)ncn2)cc1)Nc1cccc(F)c1 [Miro1 Reducer]
locomotor decline (climbing ability): significantly rescued

From patent publication US12544375B2, “Small molecule therapeutic for parkinson's disease paired with a biomarker of therapeutic activity” (The Board of Trustees of the Leland Stanford Junior …, priority 2019, dated 2026)
